Source: PMC9474773, “PARP targeted Auger emitter therapy with [^125I]PARPi-01 for triple-negative breast cancer” (EJNMMI Research, 2022)
“Also recorded” adds a separate entry of the source.

Legend:
[1] = system: MCF-7; experiment: Nuclear uptake, subcellular fractionation with gamma counter; assay type: cell-based; settings: 24 h, 1 MBq/10^6 cells
Procedure: (§1) Breast cancer cells were seeded (0.5 × 10^6) in a 12-well plate and treated with [^125I]PARPi-01 (1 MBq/10^6 cells) for 24 h. Subcellular fractionation was performed using a Subcellular Fractionation kit (ThermoFischer inc., #78840. Protein concertation was assessed using BCA assay. SDS-PAGE was performed using the fractions (30 µg/lane) and Any KD Mini-Protean TGX gels (90 V for 1.5 h). The separated proteins were transferred to PVDF membranes using a wet blotting (60 V, 2 h) technique. The blots were then blocked with 1% Milk/TBST and incubated with a primary antibody (anti-PARP1 (1:1000); Abcam ab227244; anti-GAPDH (1:4000); cell signalling 14C10, or anti-Histon H3 1:1000) Abcam ab1791). For the phosphorimager analysis, after blotting, the blots were sandwiched with a Fujifilm Imaging plate for Bioanalyzer (BAS-MS 2040), and incubated overnight, and the protein bound activity was imaged using a phosphorimager (Typhoon FLA 7000 version 1.2). To assess the tracer uptake, both fractions were measured using a gamma counter (Wizard^2, Perkin Elmer, USA).

[2] = system: MDA-MB-468; experiment: as above; assay type: cell-based; settings: 24 h, 1 MBq/10^6 cells
Procedure: as §1

[3] = system: MDA-MB-231; experiment: as above; assay type: cell-based; settings: 24 h, 1 MBq/10^6 cells
Procedure: as §1

[4] = system: MDA-MB-231 cells; design: method as in PMID 35008392; settings: cited from earlier work
[5] = system: MDA-MB-231 cells; design: method as in PMID 35008392; settings: cited from earlier work; remark: listed apart in the source
[6] = system: MDA-MB-231 tumour tissue, liver, thyroid; experiment: Apoptosis (TUNEL) staining of ex vivo tissue sections; assay type: in vivo, NOD/SCID mice
Procedure: Organs excised and retrieved from control (n = 3) and therapy mice (n = 3) were fixed with 4% PFA overnight at 4 °C. For cryopreservation, the organs were kept for 2–3 days at 4 °C in 30% sucrose Cryosections (6 µm) of excised and preserved organs were made using a cryostat (Leica, CM3050S). For TUNEL fluorescence quantification, therapy mice (n = 3) and control mice (n = 3) slices were stained simultaneously. The TUNEL staining kit (Roche # 11684795910) was used and protocol was followed as mentioned in the staining kit. Tissues were washed with PBS and permeabilised with 0.1 % Triton-X in 0.1 % […] on ice for 2 min. Following permeabilization, sections were incubated with TUNEL reaction mixture (Fluorescence labelled Terminal deoxynucleotidyl transferase enzyme dissolved in nucleotide buffer) for 1 h at 37 °C. After PBS wash, the cells were mounted with RotiMount® Vectashield containing DAPI and analysed using fluorescence microscopy (Zen Lite, Carl Zeiss). The images were processed and quantified using CellProfiler 3.0 software.

[7] = Time activity analysis of organ activity (biodistribution, therapy study and SPECT/CT data pooled); assay type: in vivo, NOD/SCID mice
Procedure: For biodistribution, animals imaged at 4 h p.i. were killed 24 h p.i., while the ones scanned 24 h p.i. were killed 5 days p.i.. Subsequently, organs were excised, weighed, and assayed for radioactivity in a gamma counter. Mean tumour and organ uptake was determined from decay-corrected tissue radioactivity normalized to injected dose and tissue sample weight (%ID/g tissue wet weight).
All statistical analyses were performed using the Graph-Pad Prism software (Version 9.1.1). Biodistribution data is expressed as mean ± standard deviation. Kaplan–Meier Survival curve was analysed using survival analysis (Log rank Mantel-Cox test). The data points of the normalized tumour volume as a function of the time of the groups (Control, ^125I-PARPi, Control—excluded ulcers, ^125I-PARPi—excluded ulcers) were subjected to nonlinear regression analysis using the exponential growth formula Y = Y0*exp(k*x) (Malthusian). Accordingly, the doubling time is equal to ln(2)/k. […] During regression analysis, the best-fit value k was compared between two datasets each using the extra sum-of-squares F test, testing the null hypothesis that k is the same for both datasets. Time activity analysis was performed using nonlinear exponential decay curve fitting and area under the curve was computed using the Graph-Pad Prism software. The area under the curve is expressed as total peak area ± standard error. For statistical analysis of fluorescent signals, unpaired t-test was used.
Auger emitter-based therapeutic effect was assessed upon application of [^125I]PARPi-01 in 4 doses (8.15 ± 2.96 MBq/dose) with 10 days between each dose in subcutaneous MDA-MB-231 models (Fig. 3A). The fractionated therapy was designed based on two recent publications. In the study by Riad et al., a good tumour response without severe toxicity in normal tissue after application of 30 MBq ^125I-labeled PARPi was shown. […] Furthermore we observed DNA damage upon low dose PARPi application in our in-vitro experiments in the MDA-MB-231 cell line. […] To avoid any handling bias in calliper measurements, only CT-image-based tumour growth was analysed. […] A significant delay in tumour growth was observed upon [^125I]PARPi-01 treatment showing doubling time of 14.2 d (95% CI: 12.6 d to 16.1 d) (Fig. 3B, Additional file 1: Fig. S3). Comparing the treatment group with the control (with and without exclusion of animals with ulcers) we could see a significant difference between the k values (P < 0.0001 and P = 0.0038, respectively) and thus also the doubling time. […] A significant portion of the mice in both the control group and the therapy group were sacrificed due to reaching humane endpoints not related to tumour size. 2 mice were sacrificed due to ascites and 10 mice were sacrificed due to ulcer formation on the tumour site. […] Considering only this selection of mice, median survival time was 35 and 38 for control and therapy mice, respectively. Since, as shown for ^177Lu labelled tracer, data (SUV, concentration) calculated based on SPECT images correlate with those obtained by gamma counting, liver, tumour, and muscle were excised for subsequent gamma counter measurements. To obtain the time activity curve and tracer retention time in each organ, the decay corrected activity (%ID/g) from the biodistribution study, therapy study and also organ activity calculated from SPECT/CT images at 4 h and 24 h p.i. were taken together and plotted over time for liver (Fig. 3D), tumour (Fig. 3E) and muscle (Fig. 3F). Tracer uptake in liver was at a peak of 3.84%ID/g at 4 h p.i. and dropped over time to 0.411%ID/g (8d p.i.). […] The peak uptake of muscle was only 0.186%ID/g at 4 h p.i. and decreased to 0.002%ID/g at 8 d p.i. The overall area under the curve (retention time) in tumour was 26.53 ± 2.35 h/g as opposed to a liver retention of 284 ± 45.02 h/g, whereas the retention time of muscle was only 5.918 ± 0.98 h/g.

[8] = total peak area ± standard error

## O=C(c1ccc([125I])cc1)N1CCN(C(=O)c2cc(Cc3n[nH]c(=O)c4ccccc34)ccc2F)CC1 [[^125I]PARPi-01]
[1]
  nuclear tracer localization, of total tracer: more than 40%
[2]
  nuclear tracer localization, of total tracer: > 75%
[3]
  nuclear tracer localization, of total tracer: > 75%
[4]
  level of apoptosis induction: remained comparable low
[5]
  colony formation after treatment: significant reduction in colony formation
[6]; therapy group
  apoptosis in liver or thyroid: did not show any noticeable apoptosis; also recorded: no noticeable apoptosis
[6]; therapy group n = 3, P < 0.05 vs control
  percentage of nuclei in tumour positive for apoptosis: 52.5 ± 19.0%
[7]; 4 h p.i.
  tracer accumulation in tumour: 0.7219 %ID/g
[7]; 4 h p.i. (peak)
  tracer uptake in liver: 3.84 %ID/g
  uptake of muscle: 0.186 %ID/g
[7]; 24 h
  tracer accumulation in tumour: 0.2 % ID/g
[7]; 8 days
  tracer accumulation in tumour: 0.02%
[7]; 8 d p.i.
  tracer uptake in liver: 0.411 %ID/g
  uptake of muscle: 0.002 %ID/g
[7]; [8]
  area under the curve (retention time) in liver: 284 ± 45.02 h/g
  area under the curve (retention time) in muscle: 5.918 ± 0.98 h/g
  area under the curve (retention time) in tumour: 26.53 ± 2.35 h/g
